The structures appear in SMILES notation. Active and inactive are the calls of the source. The rule behind the calls is not given here.

One data set has as its system Artemia. As to the kind of experiment: Toxicity against brine shrimp after 24 hrs. It counts as organism-based. The settings on record: in vivo.
Data set [1] deals with Candida albicans. Put plainly: Antimicrobial activity against Candida albicans ATCC 14053 at 100 ug/disk by disk agar plate assay. The note with it: read-out: IZ. It counts as functional.
The subject of data set [2] is Candida albicans. Put plainly: Antimicrobial activity against Candida albicans ATCC 14053 at 10 ug/disk by disk agar plate assay. It counts as functional, organism-based.
A further data set deals with Pseudomonas aeruginosa. As to the kind of experiment: Antimicrobial activity against Pseudomonas aeruginosa ATCC 10145 by disk agar plate assay. It counts as functional, organism-based.
The subject of the next data set is Escherichia coli. As to the kind of experiment: Antimicrobial activity against Escherichia coli ATCC 11775 by disk agar plate assay. It counts as functional, organism-based.
Data set [3] concerns Salmonella enterica subsp. enterica. As to the kind of experiment: Antimicrobial activity against Salmonella choleraesuis subsp. choleraesuis ATCC 14028 by disk agar plate assay. It counts as functional, organism-based.
The subject of another data set is Bacillus subtilis. As to the kind of experiment: Antimicrobial activity against Bacillus subtilis ATCC 6051 by disk agar plate assay. It counts as functional, organism-based.
For a further data set, the system named is Staphylococcus aureus. As to the kind of experiment: Antimicrobial activity against Staphylococcus aureus ATCC 12600 by disk agar plate assay. In kind it is functional, organism-based.

Consider `CC(C)[C@@H]1NC(=O)CNC(=O)[C@@H]2CSC(=N2)[C@H](C(C)(C)O)OC(=O)C(C)(C)[C@H](CCCC(C)(Cl)Cl)OC(=O)c2csc1n2` [LYNGBYABELLIN B], for which the LD50 in the data set with Artemia turned out to be 3 ppm. Further, the zone of inhibition at 100 µg/disc with Candida albicans [1] was determined as 10.5 mm. Moreover, the result with Candida albicans [2] was Active. Further, the result (with Pseudomonas aeruginosa; in the data set with Escherichia coli; in data set [3]; in the data set on Bacillus subtilis; in the data set on Staphylococcus aureus) was inactive.

For the origin of these results see ChEMBL document CHEMBL1155612, “Lyngbyabellin B, a toxic and antifungal secondary metabolite from the marine cyanobacterium Lyngbya majuscula” (J Nat Prod, 2000).
